Measurements: patent US20140206682A1, “COMPOUNDS AND COMPOSITIONS AS PDGFR KINASE INHIBITORS” (NOVARTIS PHARMACEUTICALS UK LIMITED, priority 2011, published 2014)

These compounds were tested on PDGFR (assay: Rat A10 cell proliferation assay). Details: Table 2; Rat A10 cells, recombinant rat PDGF-BB, CellTiter-Glo after 68 hours.
Assay type: cell-based
Experimental: Compounds of Formula (I) provided herein were assayed to measure their capacity to inhibit c-kit and PDGFR kinases using the appropriate assay described below: c-Kit inhibition was evaluated using the Mo7e cell proliferation assay, and PDGFR inhibition was evaluated using the Rat A10 cell proliferation assay and the Human TG/HA-VSMC cell proliferation assay.
Rat A10 cells (ATCC) were resuspended in DMEM supplemented with 1% FBS and 10 ng/mL recombinant rat PDGF-BB at 20,000 cells/mL. The cells were aliquoted into 384 well plates at 50 μL/well and incubated for 4 hours at 37° C. 0.5 μL of test compound 3-fold serially diluted in DMSO was added to each well. The plates were returned to the incubator for a further 68 hours. 25 μL of CellTiter-Glo (Promega) was added to each well and the plates were incubated on the bench for 15 minutes. Luminescence was then read using a CLIPR CCD camera (Molecular Devices).

`[2H]c1c([2H])c([2H])n2c(C(=O)Nc3cc(C(=O)N[C@H]4c5ccccc5C[C@H]4O)ccc3F)cnc2c1[2H]` [F55, N-(2-fluoro-5-{[(1S,2R)-2-hydroxy-2,3-dihydro-1H-inden-1-yl]carbamoyl}phenyl)-5,6,7,8-tetrahydrogenioimidazo[1,2-a]pyridine-3-carboxamide] and `O=C(N[C@H]1c2ccccc2C[C@H]1O)c1ccc(F)c(NC(=O)c2cnc3cc(F)ccn23)c1` [F60, 7-fluoro-N-(2-fluoro-5-{[(1S,2R)-2-hydroxy-2,3-dihydro-1H-inden-1-yl]carbamoyl}phenyl)imidazo[1,2-a]pyridine-3-carboxamide] are within 1.5-fold of each other in IC50: 484 nM for the first, 609 nM for the second.

Going from `O=C(N[C@@H]1CCCC[C@H]1O)c1ccc(F)c(NC(=O)c2cnc3ccccn23)c1` [F56, N-(2-fluoro-5-{[(1R,2R)-2-hydroxycyclohexyl]carbamoyl}phenyl)imidazo[1,2-a]pyridine-3-carboxamide] to `O=C(N[C@H]1CCC[C@H]1O)c1ccc(F)c(NC(=O)c2cnc3ccccn23)c1` [F74, N-(2-fluoro-5-{[(1S,2R)-2-hydroxycyclopentyl]carbamoyl}phenyl)imidazo[1,2-a]pyridine-3-carboxamide], the IC50 rises from 521 nM to 3480 nM (6.7-fold).

Compared with `CCC[C@@H](CO)NC(=O)c1cccc(NC(=O)c2cnc3ccccn23)c1` [F57, N-(3-{[(2S)-1-hydroxypentan-2-yl]carbamoyl}phenyl)imidazo[1,2-a]pyridine-3-carboxamide], `O=C(NC(CO)c1ccccc1)c1cccc(NC(=O)c2cnc3ccccn23)c1` (stereo not shown) [F65, N-{3-[(2-hydroxy-1-phenylethyl)carbamoyl]phenyl}imidazo[1,2-a]pyridine-3-carboxamide] is 2.1-fold higher in IC50: 522 nM for the first, 1110 nM for the second. The first is the more potent here.

Compared with `O=C(N[C@H]1CCCC[C@H]1CO)c1ccc(F)c(NC(=O)c2cnc3ccccn23)c1` [F59], `O=C(N[C@@H]1CCC[C@H]1O)c1ccc(F)c(NC(=O)c2cnc3ccccn23)c1` [F75, N-(2-fluoro-5-{[(1R,2R)-2-hydroxycyclopentyl]carbamoyl}phenyl)imidazo[1,2-a]pyridine-3-carboxamide] is 6.4-fold higher in IC50: 603 nM for the first, 3840 nM for the second.

First: O=C(NCC(O)C(F)(F)F)c1ccc(F)c(NC(=O)c2cnc3ccccn23)c1 (stereo not shown) [F63, N-{2-fluoro-5-[(3,3,3-trifluoro-2-hydroxypropyl)carbamoyl]phenyl}imidazo[1,2-a]pyridine-3-carboxamide]
Second: O=C(N[C@H]1c2ccccc2C[C@H]1O)c1ccc(F)c(NC(=O)c2cnc3ccc(COCC(F)(F)F)cn23)c1 [F70, N-(2-fluoro-5-{[(1S,2R)-2-hydroxy-2,3-dihydro-1H-inden-1-yl]carbamoyl}phenyl)-6-[(2,2,2-trifluoroethoxy)methyl]imidazo[1,2-a]pyridine-3-carboxamide]
The IC50 of the first is 2-fold lower: 1060 nM for the first, 2090 nM for the second.

First: O=C(NCC1(O)CCCCC1)c1cccc(NC(=O)c2cnc3ccccn23)c1 [F64]
Second: O=C(NCC1(O)CCCC1)c1cccc(NC(=O)c2cnc3ccccn23)c1 [F69]
The IC50 of the first is 1.7-fold lower: 1100 nM for the first, 1850 nM for the second. The first is the more potent here.

Going from `O=C(N[C@H]1c2ccccc2C[C@H]1O)c1cccc(NC(=O)c2cnc3ccccn23)c1` [F68, N-(3-{[(1S,2R)-2-hydroxy-2,3-dihydro-1H-inden-1-yl]carbamoyl}phenyl)imidazo[1,2-a]pyridine-3-carboxamide] to `O=C(N[C@H]1CC[C@H](O)CC1)c1cccc(NC(=O)c2cnc3ccccn23)c1` [F76, N-{3-[(4-hydroxycyclohexyl)carbamoyl]phenyl}imidazo[1,2-a]pyridine-3-carboxamide], the IC50 rises from 1520 nM to 9420 nM (6.2-fold).

Compared with `O=C(N[C@H]1c2ccccc2C[C@H]1O)c1ccc(F)c(NC(=O)c2cnc3cc(N4CCOCC4)ccn23)c1` [F71, N-(2-fluoro-5-{[(1S,2R)-2-hydroxy-2,3-dihydro-1H-inden-1-yl]carbamoyl}phenyl)-7-(morpholin-4-yl)imidazo[1,2-a]pyridine-3-carboxamide], `O=C(NCC1(O)CCC1)c1cccc(NC(=O)c2cnc3ccccn23)c1` [F73, N-(3-{[(1-hydroxycyclobutyl)methyl]carbamoyl}phenyl)imidazo[1,2-a]pyridine-3-carboxamide] is 1.5-fold higher in IC50: 2180 nM for the first, 3270 nM for the second. The first is the more potent here.
